From patent US9598441B2, “Therapeutic compounds and methods” (Wayne State University, priority 2011, dated 2017)

Experiments:
[1] = tested on: CARP-1, cyclin B1, Cdc20, Cdh1, APC-2, CDKIs, caspases, p38, Bcl2 family proteins; experiment: Western blot of protein levels in treated cells; assay type: cell-based
Protocol: (§1) Logarithmically growing cells were either untreated or treated with different agents for various time periods. The cells were lysed to prepare protein extracts. IP was carried out by incubating approximately 1 mg of the protein lysate with appropriate antibodies, and the immunoprecipitates or cell lysates were then electrophoresed on 9-12% SDS-polyacrylamide gels, and transferred to nitrocellulose membranes. The membranes were subsequently probed with various antibodies to determine expression/presence of the corresponding proteins. The cell growth inhibition was assessed by using MTT assay. Briefly, MTT (3-[4,5-Dimethylthiazol-2-yl]-2,5diphenyltetrazolium bromide) was dissolved in sterile 1×PBS to prepare a stock solution of 5 mg/ml. The solution was subsequently filtered through 0.2 μm filter and stored at 2-8° C. 4−5×10^2 cells were seeded in 96-well plates. After 72 h incubation with or without different agents, MTT stock solution was added to each culture being assayed to equal one tenth the original culture volume, followed by incubation of cells at 37° C. for another 2 h. At the end of the incubation, the media was removed and cells were treated with 100-200 μl of DMSO to solubilize the dye. The assessment of the live cells was derived by measuring the absorbance of the converted dye at wavelength of 570 nm.

Gst-APC-2 (685-754) = molecular target: T1, Gst-APC-2 (685-754) (Homo sapiens, UniProt Q9UJX6); experiment: In vitro binding of SMIs, immobilized Gst-APC-2 pre-incubated with CFM; conditions: WB with anti HA-tag
T1 construct: immobilizing the Gst-APC-2 (685-754) peptide with Gst-beads; made in house; host or cells: E. coli BL-21 (DE3)
Protocol: (§2) The CFM-4 and 5 were separately dissolved in DMSO to obtain a stock of 20-50 mM. For in vitro binding experiments we utilized affinity-purified Gst-APC-2 (685-754) and His-TAT-HA-tagged A-epitope (WT) peptide. Ten nanogram of the His-TAT-HA-tagged A-epitope (WT) peptide was first allowed to bind with Ni-NTA beads (ProBond, InVitrogen), and then the reaction was incubated with DMSO (control), 100 μM CFM-4, or 100 μM CFM-5 for 30 min at RT. The reactions were then subjected to three washes with the binding buffer, followed by incubation with 10 ng of affinity-purified Gst-APC-2 (685-754) peptide for 30 min at RT. The reactions were washed again for three times with PBS, eluted and analyzed on a SDS-PAGE followed by western blotting (WB) with anti-Gst antibodies. A similar strategy was performed by immobilizing the Gst-APC-2 (685-754) peptide with Gst-beads. The beads were washed, incubated with DMSO or the CFMs, and the reactions washed again. The reactions were then allowed to incubate with affinity purified A-epitope peptide, and the complexes analyzed by SDS-PAGE followed by WB with anti HA-tag antibodies.

[2] = tested on: HBC cells transfected with scrambled, CARP-1 or Cdh1 SiRNAs; experiment: MTT assay in SiRNA-transfected cells; assay type: cell-based, human
Protocol: as §1
To test this possibility, cells were transfected with 100 nM each of the CARP-1 or the scrambled SiRNAs as detailed in methods. The SiRNA-transfected cells were then either untreated or treated with 20 μM CFM-4 for 24 h followed by determination of levels of CARP-1 and cyclin B1 proteins. […] In a separate experiment, cells were similarly transfected with CARP-1 SiRNA or scrambled SiRNAs followed by treatment with CFM-4 essentially as in FIG. 6A, and cell viabilities were determined by the MTT assay. […] In a separate experiment, cells were similarly transfected with Cdh1 SiRNA or scrambled SiRNAs followed by treatment with CFM-4 essentially as in FIG. 6C, and cell viabilities were determined by the MTT assay.

[3] = molecular target: T2, His-TAT-HA-tagged A-epitope peptide [CARP-1 (951-980)] (Homo sapiens, UniProt Q8IX12); experiment: In vitro binding of SMIs, immobilized A-epitope peptide pre-incubated with CFM; conditions: 100 μM, 30 min at RT; WB with anti-Gst
T2 construct: wild-type or scrambled His-TAT-HA-CARP-1 (951-980) peptides; made in house; host or cells: E. coli BL-21 (DE3)
T2 sequence (Q8IX12 951-980 limits assumed): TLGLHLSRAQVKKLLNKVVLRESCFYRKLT
Protocol: as §2

[4] = tested on: caspase-3, caspase-8, caspase-9, caspase-2; experiment: ApoAlert Caspase profiling plate, fluorescence-based; assay type: cell-based
Protocol: For apoptosis ELISA assay, 4−5×10^2 cells were seeded in 96-well plates and treated essentially as indicated in the MTT assay above. Untreated as well as treated cells were lysed, and levels of mono and oligo-nucleosomal DNA fragments in the lysates were determined by measuring optical density of each sample at 405 nm and 495 nm wavelengths. […] For TUNEL labeling, the cells were treated with various agents, fixed, labeled and photographed essentially as detailed in immuno-localization protocols described before (Zhang, L., Levi, E., Majumder, P., Yu, Y., Aboukameel, A., Du, J., Xu, H., Mohammad, R. M., Hatfield, J. S., Wali, A., Adsay, V., Majumdar, A. P. N., and Rishi, A. K. (2007) Mol. Cancer. Ther. 6(5), 1661-1672). […] Cell lysates derived from vehicle DMSO (Control) or CFM-4-treated cells were added to the wells that had immobilized fluorogenic caspase-3, caspase-8, caspase-9, or caspase-2 substrates. The fluorescence released from the activated caspase-dependent cleavage of respective substrate was detected by a plate reader at the excitation and emission wavelengths of 380 nm and 460 nm, respectively.

T1 sequence (Q9UJX6 685-754): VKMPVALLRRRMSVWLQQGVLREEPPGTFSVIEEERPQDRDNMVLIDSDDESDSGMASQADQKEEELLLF

Structure (SMILES): O=C1N(Cc2ccccc2Cl)c2ccccc2C12NN=C(c1ccccc1)S2 (stereo not shown) [CFM-4, 1-(2-chlorobenzyl)-5′-phenyl-3′H-spiro[indoline-3,2′-[1,3,4]thiadiazol]-2-one]
- APC-2 levels (WB) [1]: unaffected
- Bax expression (WB) [1]: failed to stimulate Bax expression
- Cdc20 levels (WB) [1]: significantly reduced
- Cdh1 levels (WB) [1]: modest decline
- cleavage of caspases (WB) [1]: cleavage of caspases 9 and 8
- tBid levels (WB) [1]: modest increase in tBid levels
- CARP-1 levels (WB) ([1]; 50 nM velcade 6 h or 24 h, 20 μM CFM-4 24 h): robust increase in CARP-1 levels
- p38 activation (WB) ([1]; 20 μM, from 6 h, sustained through 24 h): activation (phosphorylation) of p38
- levels of p21WAF1/CIP1 and p27KIP1 CDKIs (WB) ([1]; 0.5-1.0 h exposure): elevated
- levels of p21WAF1/CIP1 and p27KIP1 CDKIs (WB) ([1]; 3 h and beyond): decline
- cyclin B1 levels (WB) ([1]; 6 h and subsequent treatment periods): depleted cyclin B1
- levels of BimEL (WB) ([1]; 12 h or 24 h treatments): declined significantly
- levels of Bims isoform (WB) ([1]; 12 h or 24 h treatments): concomitant increase
- levels of E2 ubiquitin ligase UbCH10 (WB) ([1]; alone or in combination with caspase inhibitors): not affected
- cleavage of PARP1 (WB) ([1]; cells transfected with scrambled SiRNAs): robust cleavage of PARP1
- levels of Bcl2, BclXL, Noxa, and Puma proteins (WB) ([1]; different cells): failed to modulate levels
- CARP-1 and cyclin B1 levels (WB) ([1]; drug (ADR or TAM)-resistant MCF-7 cells): elevated CARP-1 and reduced cyclin B1 levels
- cyclin B1 levels (WB) ([1]; prostate and pancreatic cancer cells): induced cyclin B1 loss
- CARP-1 levels (WB) ([1]; time course, 6 h and subsequent treatment periods): stimulated CARP-1 levels
- binding of immobilized Gst-APC-2 (685-754) with A-epitope peptide after pre-incubation with compound (Gst-APC-2 (685-754)): failed to abolish its binding
- growth of cells transfected with scrambled SiRNAs (MTT) ([2]; 20 μM CFM-4, 24 h): suppressed growth
- growth inhibition in CARP-1 SiRNA-transfected cells (MTT) ([2]; CARP-1 knockdown, 20 μM CFM-4, 24 h): blocked CFM-4-dependent inhibition of cell growth
- growth inhibition in Cdh1 SiRNA-transfected cells (MTT) ([2]; Cdh1 knockdown): blocked CFM-4-dependent inhibition of HBC cell growth
- binding of immobilized A-epitope peptide with Gst-APC-2 (685-754) after pre-incubation with compound [3]: abrogated its binding
- activation of caspases (fluorescence-based quantitative assay) [4]: activation of caspases 3, 8, 9, and 2
